Data reported in patent publication US9169241B2, “Quinolinyloxyphenylsulfonamides” (Max-Planck-Gesellschaft Zur Forderung der Wissenschaften …, priority 2009, dated 2015).
Like-named read-outs stand apart in the source and are kept apart here.

How the values were obtained:
[1] = system: Hs578T; assay: Cell vitality assay (ATP assay, CellTiter-Glo); format: cell-based; conditions: Homo sapiens, Hs-578T; HS578T cell line, 72 h; Table Ib; read-out: IC50 ATP-Assay HS578T after 72 h
Protocol: (§1) The CellTiter-Glo® Luminescent Cell Viability Assay (Promega Corporation. Madison, Wis., USA) is method a determining the number of viable cells in culture based on quantification of the ATP being present which is an indicator of metabolically active cells was used according to manufacturers protocol, In detail the assay was performed in a 96 well format were 1000 cells/well were incubated with indicated compound at concentration of 12.5 μM, 6.25 μM, 3.125 μM, 1.56 μM, 0.78 μM, 0.39 μM, 0.195 μM as well as DMSO control for 72 h in 100 μl cell culture medium. IC50 values were calculated as 50% of ATP amount compared to DMSO control.
Protocol for the CellTiter-Glo® Luminescent Cell Viability Assay • 1. Prepare opaque-walled multiwell plates with mammalian cells in culture medium, 100 μl per well for 96-well plates • 2. Prepare control wells containing medium without cells to obtain a value for background luminescence. • 3. Add the compound to be tested to experimental wells, and incubate according to culture protocol. • 4. Equilibrate the plate and its contents at room temperature for approximately 30 minutes. • 5. Add a volume of CellTiter-Glo® Reagent (Promega Corporation. Madison, Wis.) equal to the volume of cell culture medium present in each well. • 6. Mix contents for 2 minutes on an orbital shaker to induce cell lysis. • 7. Allow the plate to incubate at room temperature for 10 minutes to stabilize luminescent signal. • 8. Record luminescence on Microplate Luminometer LB96V (Berthold Tchnologies, Bad Wildbad, Germany). An integration time of 0.1 and 1 second per well

[2] = system: Hs578T; assay: Wound healing migration assay; format: cell-based; conditions: Homo sapiens, Hs-578T; HS578T cell line; Table Ib
Protocol: This method mimics cell migration during wound healing in vivo. The basic steps involve creating a “wound” in a cell monolayer, capturing the images at the beginning and at regular intervals during cell migration to close the wound, and comparing the images to quantify the migration rate of the cells. In detail, 150000 cell/24 well have been seeded and allowed to form a monolayer overnight. Subsequently a “wound” or “scratch” has been performed with a 1000 μl pipette tip. The STDV of wound size is normally below 10% at time point t0. The assay was stopped by fixation with 0.05% Crystal violet/20% methanol when control scratches were closed. The assay was terminated between 48 h and 72 h depending on the migration potential of the indicated cell line. The “wounds” were visualized with a Zeiss Axiovert S100 microscope (Carl Zeiss UK, Welwyn Garden City, UK). The tested compounds were used at 12.5 μM, 6.25, 3.125 μM and DMSO control. IC50 values have been calculated as 50% wound size in between t0 and t48 or t72.

[3] = system: Hs578T; assay: Matrigel outgrowth assay/branching assay; format: cell-based; conditions: Homo sapiens, Hs-578T; HS578T cell line; Table Ib; read-out: Total branching inhibition in Matrigel HS578T
Protocol: The Matrigel outgrowth assay is based on the ability of tumor cell to penetrate a solid gel of extracellular matrix proteins mimicking the metastasis formation in vivo. While cells with low invasive potential appear as roundish cell or cell cluster, cells with high invasive potential penetrate the Matrigel and form polymorphic structures. In detail 65 μl of Matrigel matrix (Matrigel™ Matrix, BD Biosciences, Bedford, Mass., USA) with a concentration of 3 mg/ml have been polymerized in 96 well plates for 1 h at 37° C. Subsequently 5000 cell/well were seeded into each well containing cell culture medium and indicated compound with concentrations of 3.125 μM, 1.56 μM and 0.78 μM as well as DMSO control. After 48 h, 72 h and 96 h images of cell were taken on an inverted microscope using a 5× objective (Zeiss Axiovert S100 microscope Carl Zeiss UK, Welwyn Garden City, UK). Only compound concentrations were total branching inhibition was evident were accounted as positive. Method was used as previously described, with some modifications (Thompson E W, et al. Association of increased basement membrane invasiveness with absence of estrogen receptor and expression of vimentin in human breast cancer cell lines. J Cell Physiol 1992; 150:534-44).

[4] = system: viable cells in culture; assay: Cell viability assay at 10 μM (CellTiter-Glo, Table VII); format: cell-based; conditions: compound 10 μM, 72 h;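 further: graded A 0-20%; B 21-40%; C 41-60%; D over 60% viable cells relative to DMSO control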
Protocol: as §1, with “protocol.” for “protocol,”, “with” for “with indicated”, “10” for “of 12.5 μM, 6.25 μM, 3.125 μM, 1.56 μM, 0.78 μM, 0.39 μM, 0.195”, “Percentage of inhibition was” for “IC50 values were”, “compared to” for “as 50% of”, “of” for “compared to”

[5] = Homo sapiens, HCT-116, HCT116 def, read-out: percentage (%) of viable cells HCT 116def
[6] = Homo sapiens, HCT-116, HCT116 wt, read-out: percentage (%) of viable cells HCT 116wt
[7] = Homo sapiens, HT-29, HT29, read-out: percentage (%) of viable cells HT29
[8] = Homo sapiens, NCI-H358, H358, read-out: percentage (%) of viable cells H358
[9] = Homo sapiens, NCI-H1650, H1650, read-out: percentage (%) of viable cells H1650
[10] = Homo sapiens, NCI-H1666, H1666, read-out: percentage (%) of viable cells H1666
[11] = Homo sapiens, NCI-H1975, H1975, read-out: percentage (%) of viable cells H1975
[12] = Homo sapiens, NCI-H1993, H1993, read-out: percentage (%) of viable cells H1993
[13] = Homo sapiens, A549, read-out: percentage (%) of viable cells A549
[14] = Homo sapiens, HCC827, read-out: percentage (%) of viable cells HCC827
[15] = Homo sapiens, SW480, read-out: percentage (%) of viable cells SW480
[16] = RKO, read-out: percentage (%) of viable cells RKO

Row | IC50 [2] [µM] | melting point [°C] | Compound | IC50 [1] [µM] | IC50 [3] [µM] | viability at 10 µM [4, 5] [%] | viability at 10 µM [4, 6] [%] | viability at 10 µM [4, 7] [%] | viability at 10 µM [4, 8] [%] | viability at 10 µM [4, 9] [%] | viability at 10 µM [4, 10] [%] | viability at 10 µM [4, 11] [%] | viability at 10 µM [4, 12] [%] | viability at 10 µM [4, 13] [%] | viability at 10 µM [4, 14] [%] | viability at 10 µM [4, 15] [%] | viability at 10 µM [4, 16] [%]
1 | ≤ 12.5 | 176 to 178 | COc1cc2c(Oc3cccc(NS(=O)(=O)c4ccsc4)c3)ccnc2cc1OCCCN1CCN(C)CC1 [Example 133, Thiophene-3-sulfonic acid (3-{6-methoxy-7-[3-(4-methyl-piperazin-1-yl)-propoxy]-quinolin-4-yloxy}-phenyl)-amide] | ≤ 12.5 | ≤ 10 |  |  |  |  |  |  |  |  |  |  |  | 
2 | 12.5 to 50 | 200 to 202 | COc1cc2c(Oc3cccc(NS(=O)(=O)c4c(C)noc4C)c3)ccnc2cc1OCCCN1CCN(C)CC1 [Example 138, 3,5-Dimethyl-isoxazole-4-sulfonic acid (3-{6-methoxy-7-[3-(4-methyl-piperazin-1-yl)-propoxy]-quinolin-4-yloxy}-phenyl)-amide] | 12.5 to 50 | 10 to 25 |  |  |  |  |  |  |  |  |  |  |  | 
3 | ≤ 12.5 | 188 to 189 | COc1cc2c(Oc3cccc(NS(=O)(=O)c4cccs4)c3)ccnc2cc1OCCCN1CCN(C)CC1 [Example 129, Thiophene-2-sulfonic acid (3-{6-methoxy-7-[3-(4-methyl-piperazin-1-yl)-propoxy]-quinolin-4-yloxy}-phenyl)-amide] | ≤ 12.5 | ≤ 10 |  |  |  |  |  |  |  |  |  |  |  | 
4 | 12.5 to 50 | 150 to 152 | COc1cc2c(Oc3cccc(NS(=O)(=O)C4CC4)c3)ccnc2cc1OCCCN1CCN(C)CC1 [Example 142, Cyclopropanesulfonic acid (3-{6-methoxy-7-[3-(4-methyl-piperazin-1-yl)-propoxy]-quinolin-4-yloxy}-phenyl)-amide] | 12.5 to 50 | 10 to 25 |  |  |  |  |  |  |  |  |  |  |  | 
5 | ≤ 12.5 |  | COc1cc2c(Oc3cc(NS(=O)(=O)c4cc(F)ccc4F)ccc3F)ccnc2cc1OCCCN1CCC(C)CC1 [Example 187, 2,5-Difluoro-N-(4-fluoro-3-{6-methoxy-7-[3-(4-methyl-piperidin-1-yl)-propoxy]-quinolin-4-yloxy}-phenyl)-benzenesulfonamide] | ≤ 12.5 | ≤ 10 |  |  |  |  |  |  |  |  |  |  |  | 
6 |  | 190 to 191 | COc1cc2c(Oc3ccc(NS(=O)(=O)c4cccc(-c5ccccc5)c4)cc3F)ccnc2cc1OCCCN1CCN(C)CC1 [Example 13, Biphenyl-3-sulfonic acid (3-fluoro-4-{6-methoxy-7-[3-(4-methyl-piperazin-1-yl)-propoxy]-quinolin-4-yloxy}-phenyl)-amide] |  |  | 0 to 20 | 0 to 20 | 0 to 20 | 0 to 20 | 21 to 40 | 0 to 20 | 0 to 20 | 0 to 20 | 21 to 40 | 0 to 20 | 0 to 20 | 0 to 20
7 | 12.5 to 50 |  | COc1cc2c(Oc3ccc(NS(=O)(=O)c4cnc(C)[nH]4)cc3F)ccnc2cc1OCCCN1CCOCC1 [Example 169, 2-Methyl-3H-imidazole-4-sulfonic acid {3-fluoro-4-[6-methoxy-7-(3-morpholin-4-yl-propoxy)-quinolin-4-yloxy]-phenyl}-amide] | 12.5 to 50 | 10 to 25 |  |  |  |  |  |  |  |  |  |  |  | 
8 |  | 122 to 124 | COc1cc2c(Oc3ccc(NS(=O)(=O)c4ccc(Cl)cc4F)cc3F)ccnc2cc1OCCCN1CCCCC1 [Example 3, 4-Chloro-2-fluoro-N-{3-fluoro-4-[6-methoxy-7-(3-piperidin-1-yl-propoxy)-quinolin-4-yloxy]-phenyl}-benzenesulfonamide] |  |  | 0 to 20 | 0 to 20 | 0 to 20 | 0 to 20 | 41 to 60 | 41 to 60 | 21 to 40 | 21 to 40 | 21 to 40 | > 60 | 0 to 20 | 0 to 20
9 |  | 108 to 110 | COc1cc2c(Oc3ccc(NS(=O)(=O)c4ccc(F)c(Cl)c4)cc3F)ccnc2cc1OCCCN1CCN(C)CC1 [Example 23, 3-Chloro-4-fluoro-N-(3-fluoro-4-{6-methoxy-7-[3-(4-methyl-piperazin-1-yl)-propoxy]-quinolin-4-yloxy}-phenyl)-benzenesulfonamide] |  |  | 0 to 20 | 0 to 20 | 0 to 20 | 0 to 20 | 21 to 40 | 21 to 40 | 0 to 20 | 0 to 20 | 41 to 60 | 21 to 40 | 0 to 20 | 0 to 20
10 |  | 98 to 101 | COc1cc2c(Oc3ccc(NS(=O)(=O)c4ccccc4Br)cc3F)ccnc2cc1OCCCN1CCN(C)CC1 [Example 19, 2-Bromo-N-(3-fluoro-4-{6-methoxy-7-[3-(4-methyl-piperazin-1-yl)-propoxy]-quinolin-4-yloxy}-phenyl)-benzenesulfonamide] |  |  | 21 to 40 | 0 to 20 | 0 to 20 | 0 to 20 | 21 to 40 | 21 to 40 | 21 to 40 | 0 to 20 | 21 to 40 | 21 to 40 | 0 to 20 | 0 to 20
11 |  | 82 to 84 | COc1cc2c(Oc3ccc(NS(=O)(=O)c4cccc(F)c4)cc3F)ccnc2cc1OCCCN1CCN(C)CC1 [Example 22] |  |  | 21 to 40 | 21 to 40 | 0 to 20 | 0 to 20 | 21 to 40 | 21 to 40 | 0 to 20 | 0 to 20 | > 60 | 21 to 40 | 0 to 20 | 21 to 40
